Assay [1] has as its system Sprague Dawley rats, 6-OHDA lesion. Put plainly: Amphetamine-induced rotations, mild 6-OHDA hemi-parkinsonian rat model (study 1). The format is in vivo. To be noted: mild lesion (25%), 15 mg/kg i.p. 6 h prior to and 24 h post-lesion, 2 + 4 weeks, vs vehicle. As to the method:
(§1) Rats were treated with 2LS98Lac or saline (vehicle) as outlined in the Schemes in Figures 9A,B via intraperitoneal (i.p.) injection (15 mg/kg). All animals were made hemi-parkinsonian with unilateral, striatal 6-hydroxydopamine (Sigma Aldrich, St. Louis, MO) injections. After surgery, behavioral assessments were done at 2- and 4-weeks post-surgery. 24 h after the last test animals were either euthanized and whole brains were harvested for future biochemical analysis or perfused and brains collected for immunohistochemistry and stereological assessment of tyrosine hydroxylase-positive (TH+) cells remaining in the SNc. In study 1: n = 16 each group were included, and all underwent the behavioral analysis: n = 16, and for the stereology in the SNc, n = 8 each group was used. […]
In order to pharmacologically assess the degree of dopaminergic (DA) depletion in the lesioned side, animals were given amphetamine, an indirectly acting DA agonist and placed into a plexiglass cylinder (38 cm tall × 38 cm across) enclosed in an open field box ([Yue et al., 2011]). Dextro-amphetamine in sterile 0.9% saline (Sigma-Aldrich) was injected i.p. at 5 mg/kg, and rotations were recorded from above using Logitech HD web cameras connected to an Acer Aspire SWS-015 computer. An observer blinded to the groups counted rotations in both the ipsilateral and contralateral rotations for the entire 70 min period. […]

Assay [2] has the same test system. Put plainly: Unbiased stereology of TH-positive neurons in SNc (study 2). The format is in vivo, rat. The note with it: more severe (40%) lesion. How it is done:
as §1, with “used. In study 2: n = 23 each group were included.” for “used.”
Stereological probes were applied using a Zeiss Imager M2 microscope (Carl Zeiss, Jena, Germany) equipped with StereoInvestigator software (MBF Bioscience, VT, United States) according to previously published methods ([Corenblum et al., 2015]; [Anandhan et al., 2021]). Using the optical fractionator probe, cells were counted under the ×63 oil immersion objective by a blinded observer. TH+ cells were counted in sections 480 μm apart using a grid size of 170 × 100 μm and counting frame size of 75 × 75 μm. […]

Take `[2H]C([2H])([2H])C([2H])(C([2H])([2H])[2H])[C@]([2H])(NC(=O)[C@H](C)NC(=O)[C@H](C)NC(=O)[C@H](CC(C)C)NC(=O)[C@H](Cc1ccc(O)cc1)NC(=O)[C@H](CCCCN)NC(=O)[C@H](CCCCN)NC(=O)[C@@]([2H])(NC(=O)[C@H](C)NC(=O)[C@H](CC(C)C)NC(=O)[C@H](CCC(N)=O)NC(=O)[C@H](CCCCN)NC(=O)[C@H](CCCNC(=N)N)NC(=O)[C@H](Cc1ccc(O)cc1)NC(=O)[C@H](CCCNC(=N)N)NC(=O)[C@H](CO)NC(=O)[C@H](Cc1ccc(O)cc1)NC(=O)[C@H](CO)NC(=O)[C@H](CC(=O)O)NC(=O)[C@@H](NC(=O)[C@H](Cc1ccccc1)NC(=O)[C@@H](NC(=O)CNC(=O)[C@H](CC(=O)O)NC(=O)[C@H](CO)NC(=O)[C@@H](N)Cc1c[nH]cn1)[C@@H](C)CC)[C@@H](C)O)C([2H])(C([2H])([2H])[2H])C([2H])([2H])[2H])C(=O)N[C@@H](CC(C)C)C(=O)N[C@@H](CO[C@@H]1O[C@H](CO)[C@@H](O[C@@H]2O[C@H](CO)[C@H](O)[C@H](O)[C@H]2O)[C@H](O)[C@H]1O)C(N)=O` [Compound 2LS98Lac]: the “Cumulative contralateral amphetamine-induced rotations” value in assay [1] was “significantly decreased”. Moreover, the “Mean increase of nigral TH cells on the lesioned side vs vehicle” value in assay [2] (not significant (p = 0.2208)) was determined as 850 cells. In addition, the “Nigral TH-cell count on the lesioned side” value in assay [2] (three injections 15 mg/kg i.p., mean, vehicle 8,391) was 9,244 cells.

The values above are taken from paper PMC8887546, “Design and Synthesis of Brain Penetrant Glycopeptide Analogues of PACAP With Neuroprotective Potential for Traumatic Brain Injury and Parkinsonism” (Frontiers in drug discovery, 2022).
